Experimental data taken from patent US6919424B2, “Binding peptides for carcinoembryonic antigen (CEA)” (Dyax Corp., priority 2000, dated 2005).

Assays:
CEA [1] = molecular target: T1, CEA (Homo sapiens, UniProt P06731); experiment: Fluorescence anisotropy direct binding to CEA; details: compared with binding to NA3
T1 construct: purchased
T1 sequence (P06731 35-676): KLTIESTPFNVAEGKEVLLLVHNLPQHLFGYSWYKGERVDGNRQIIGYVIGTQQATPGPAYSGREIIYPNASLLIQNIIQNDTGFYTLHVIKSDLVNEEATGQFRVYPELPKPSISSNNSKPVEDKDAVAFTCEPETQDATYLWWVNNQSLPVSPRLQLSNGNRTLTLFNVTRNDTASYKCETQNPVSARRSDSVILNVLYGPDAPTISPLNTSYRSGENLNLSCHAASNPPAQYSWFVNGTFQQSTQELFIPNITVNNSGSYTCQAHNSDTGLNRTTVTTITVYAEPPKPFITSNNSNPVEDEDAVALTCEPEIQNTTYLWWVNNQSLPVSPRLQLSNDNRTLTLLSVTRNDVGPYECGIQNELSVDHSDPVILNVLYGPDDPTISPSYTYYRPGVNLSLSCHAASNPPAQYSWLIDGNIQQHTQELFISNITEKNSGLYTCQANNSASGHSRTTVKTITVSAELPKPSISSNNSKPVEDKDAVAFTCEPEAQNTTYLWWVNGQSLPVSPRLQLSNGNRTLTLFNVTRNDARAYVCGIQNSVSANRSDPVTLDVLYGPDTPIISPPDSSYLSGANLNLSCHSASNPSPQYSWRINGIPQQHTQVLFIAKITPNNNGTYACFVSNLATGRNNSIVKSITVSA
Method: Dissociation constants were determined using fluorescence anisotropy, through direct binding measurements to either NA-3 or CEA in PBS with 0.01% TWEEN 20. In direct binding assays, the concentration of the fluorescein-labeled peptide is held constant and the concentration of NA3 is varied. In the competition experiment, the concentration of the fluorescein-labeled peptide and the NA3 target are held constant and the concentration of competitor peptide (from Isolate 12-H12) is varied. The change in anisotropy is fit to the appropriate equation via nonlinear regression to obtain the apparent Kd. Isolate 304A-12-H12, previously isolated from Lib2 and assayed for binding, was analyzed in parallel as a control. Replicate analyses were run for certain binders and are reported to confirm accuracy and precision of measurements. KD standard error values are calculated from the nonlinear regression (SIGMAPLOT, SPSS Science, Chicago, Ill.).

NA3 = molecular target: T2, NA3 (Homo sapiens, UniProt P06731); experiment: Phage ELISA with varying amounts of NA3 per well (FIGS. 2, 4, 5); type: binding; details: FIG. 2; 100, 50, 10, 5, 1, 0 ng per well
T2 construct: H6NA3, consisting of a hexahistidine leader and the N and A3 domains of CEA, was used
T2 sequence (P06731 35-144 limits assumed): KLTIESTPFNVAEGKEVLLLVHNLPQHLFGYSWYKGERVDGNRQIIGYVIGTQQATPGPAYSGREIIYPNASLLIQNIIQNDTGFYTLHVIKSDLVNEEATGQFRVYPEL
T2 sequence (P06731 501-588 limits assumed): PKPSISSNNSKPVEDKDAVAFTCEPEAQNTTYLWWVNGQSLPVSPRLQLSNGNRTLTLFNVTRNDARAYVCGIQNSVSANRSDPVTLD
Method: The first bar for each sample represents wells each having 100 ng CEA. Successive bars represent 50 ng, 10 ng, 5 ng, 1 ng, and 0 ng CEA per well.
The first bar for each sample represents wells each having 30 ng NA3. Successive bars represent 10 ng, 3 ng, and 0 ng NA3 per well.
Several Isolates gave especially strong ELISA signals and these were tested further.
Several Isolates gave especially strong ELISA signals and these were tested further. […] Isolate 304A-12-H12 (designated DX306) was assayed in parallel as a basis for comparison.

H6NA3 = molecular target: T3, H6NA3 (Homo sapiens, UniProt P06731); experiment: Fluorescence anisotropy direct binding to H6NA3 / NA3; details: from KD of Table 7 versus Table 3
T3 construct: H6NA3, consisting of a hexahistidine leader and the N and A3 domains of CEA, was used
T3 sequence (P06731 35-144 limits assumed): T2 sequence (P06731 35-144 limits assumed)
T3 sequence (P06731 501-588 limits assumed): T2 sequence (P06731 501-588 limits assumed)
Method: (§1) Each peptide was also provided with a C-terminal amide-functional linker useful for immobilizing peptides to various chromatographic substrates: -Ala18-Pro19-Gly20-Gly-Glu-Gly-Gly-Gly-Ser-Lys-CONH2 (SEQ ID NO:28). […] Aliquots of each peptide were fluorescently labeled using NHS-fluorescein reacted with the ε-amino side group of the C-terminal lysine.
Dissociation constants were determined using fluorescence anisotropy, through direct binding measurements and competition experiments. In direct binding assays, the concentration of the fluorescein-labeled peptide is held constant and the concentration of H6NA3 is varied. In the competition experiment, the concentration of the fluorescein-labeled peptide and the H6NA3 target are held constant and the concentration of a competitor (cT84.66, unlabeled) is varied. The change in anisotropy is fit to the appropriate equation via nonlinear regression to obtain the apparent Kd.
Aliquots of each peptide were fluorescently labeled using NHS-fluorescein reacted with the ε-amino side group of the C-terminal lysine.
Dissociation constants were determined using fluorescence anisotropy, through direct binding measurements (see Example 6).
as §1, with “Peptides including the binding domain of the CEA binder Isolates were synthesized by solid-phase synthesis. Each” for “Each”
Dissociation constants were determined using fluorescence anisotropy, through direct binding measurements to either NA-3 or CEA in PBS with 0.01% TWEEN 20. […] Isolate 304A-12-H12, previously isolated from Lib2 and assayed for binding, was analyzed in parallel as a control. […] KD standard error values are calculated from the nonlinear regression (SIGMAPLOT, SPSS Science, Chicago, Ill.).

CEA [2] = molecular target: T1, CEA; experiment: Later evaluation of CEA binding, method not given

Molecule | binding to CEA (in words) (CEA [1]) | phage ELISA binding profile to varying amounts of NA3 (NA3) | increase in affinity compared to the Isolate G08 peptide (H6NA3) | binding to CEA with useful affinity (CEA [2])
CC(C)C[C@H](NC(=O)[C@@H](NC(=O)[C@H](CC(N)=O)NC(=O)[C@@H]1CSSC[C@H](NC(=O)[C@@H](NC(=O)[C@H](Cc2c[nH]c3ccccc23)NC(=O)[C@H](CC(=O)O)NC(=O)[C@@H](N)CO)C(C)C)C(=O)N[C@@H](CCC(=O)O)C(=O)N[C@@H](Cc2ccc(O)cc2)C(=O)N[C@@H](Cc2ccccc2)C(=O)N[C@@H](CCCCN)C(=O)N[C@@H](CC(N)=O)C(=O)N[C@@H](CCC(N)=O)C(=O)N[C@@H](Cc2c[nH]c3ccccc23)C(=O)N[C@@H](Cc2ccccc2)C(=O)N1)C(C)C)C(=O)N[C@@H](C)C(=O)N1CCC[C@H]1C(=O)NCC(=O)NCC(=O)N[C@@H](CCC(=O)O)C(=O)NCC(=O)NCC(=O)NCC(=O)N[C@@H](CO)C(=O)N[C@@H](CCCCNC(=O)c1ccc2c(c1)C(=O)OC21c2ccc(O)cc2Oc2cc(O)ccc21)C(N)=O [Isolate 304A-12-H12, DWVCEYFKNQWFCNVL] | effectively bound CEA, but not as strongly as they bound NA3 | do not drop off so quickly | 8 fold | –
-RYCEFFPWSLHCGRP (Isolate of TN10/9 library found not to bind CEA) [Isolate B10] | – | – | – | not to bind CEA with useful affinity
NWRCKLFPRYPYCSSW (Isolate of TN10/9 library found not to bind CEA) [Isolate G01] | – | – | – | not to bind CEA with useful affinity
